{
  "source": "patent US6358885B1",
  "about": "“Substituted phenylheterocyclic herbicides” (Mississippi State University, priority 1992, dated 2002)",
  "key": {"[1]": {"system": "barnyardgrass", "test": "Test C flood test plant response rating 0 to 100", "assay_type": "in vivo, Echinochloa crus-galli", "from_the_text": "(§1) The compounds evaluated in this test were formulated in a non-phytoxic solvent and applied to the soil surface before plant seedlings emerged (preemergence application), to water that covered the soil surface (flood application), and to plants that were in the one-to-four leaf stage (postemergence application). A sandy loam soil was used for the preemergence and postemergence tests, while a silt loam soil was used in the flood test. Water depth was approximately 2.5 cm for the flood test and was maintained at this level for the duration of the test. Plant species in the preemergence and postemergence tests consisted of barley (Hordeum vulgare), bedstraw (Galium aparine), blackgrass (Alopecurus myosuroides), chickweed (Stellaria media), corn (Zea mays), cotton (Gossypium hirsutum), crabgrass (Digitaria sanguinalis), downy brome (Bromus tectorum), giant foxtail (Setaria faberii), lambsquarters (Chenopodium album), morningglory (Ipomoea hederacea), pigweed ([…]), rape (Brassica napus), ryegrass (Lolium multiflorum), sorghum (Sorghum bicolor), soybean (Glycine max), speedwell (Veronica persica), sugar beet (Beta vulgaris), velvetleaf (Abutilon theophrasti), wheat (Triticum aestivum), wild buckwheat (Polygonum convolvulus), and wild oat (Avena fatua). All plant species were planted one day before application of the compound for the preemergence portion-of this test. Plantings of these species were adjusted to produce plants of appropriate size for the post-emergence portion of the test. […] All plant species were grown using normal greenhouse practices. Visual evaluations of injury expressed on treated plants, when compared to untreated controls, were recorded approximately fourteen to twenty one days after application of the test compound. […] A dash (-) response means no test result."}, "[2]": {"system": "pigweed", "test": "Test C preemergence/postemergence greenhouse plant response rating 0 to 100", "assay_type": "in vivo, Amaranthusretroflexus", "conditions": "for Plant response rating Pigweed: 125 g/ha, 0 to 100 scale", "in_short": "(§2)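 Compounds in non-phytotoxic solvent went onto sandy loam before emergence (seeded one day earlier) or onto plants at the one-to-four leaf stage. Duck salad was treated via flood water (~2.5 cm, maintained) over silt loam.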"}, "[3]": {"system": "blackgrass", "test": "Test B preemergence/postemergence greenhouse plant response rating 0 to 10", "assay_type": "in vivo, Alopecurus myosuroides", "conditions": "for Plant response rating, Blackgrass: 0 to 10 scale", "in_short": "(§3)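 Postemergence treatment of plants two to eighteen cm tall ran alongside preemergence treatment of planted seed, each using compound in a non-phytotoxic solvent.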"}, "[4]": {"system": "wild buckwheat", "test": "Test C preemergence/postemergence greenhouse plant response rating 0 to 100", "assay_type": "in vivo, Polygonum convolvulus", "conditions": "for Plant response rating, Wild buckwheat: 125 g/ha, 0 to 100 scale", "in_short": "as §2"}, "[5]": {"system": "cotton", "test": "Test B preemergence/postemergence greenhouse plant response rating 0 to 10", "assay_type": "in vivo, Gossypium hirsutum", "conditions": "for Plant response rating, Cotton: 0 to 10 scale", "in_short": "as §3"}, "[6]": {"system": "wheat", "test": "Test C preemergence/postemergence greenhouse plant response rating 0 to 100", "assay_type": "in vivo, Triticum aestivum", "conditions": "for Plant response rating, Wheat: 125 g/ha, 0 to 100 scale", "in_short": "as §2"}, "[7]": {"system": "duck salad", "test": "Test C flood test plant response rating 0 to 100", "assay_type": "in vivo, Heteranthera limosa", "from_the_text": "as §1"}, "[8]": {"system": "wild oat", "test": "Test B preemergence/postemergence greenhouse plant response rating 0 to 10", "assay_type": "in vivo, Avena fatua", "conditions": "for Plant response rating, Wild oat: 0 to 10 scale", "in_short": "as §3"}, "[9]": {"system": "rice", "test": "Test B preemergence/postemergence greenhouse plant response rating 0 to 10", "assay_type": "in vivo, Oryza sativa", "conditions": "for Plant response rating, Rice: 0 to 10 scale", "in_short": "as §3"}, "[10]": {"conditions": "POSTEMERGENCE section, flood test, Rate 2 g/ha"}, "[11]": {"conditions": "Rate 8 g/ha, under POSTEMERGENCE head (flood test species)"}, "[12]": {"conditions": "Rate 31 g/ha, under POSTEMERGENCE head (flood test species)"}, "[13]": {"conditions": "flood test species listed under POSTEMERGENCE, 125 g/ha, 0 to 100 scale"}},
  "data": [
    {"smiles": "CCOCOc1cc(-c2nn3c(c2Cl)CCCC3)c(F)cc1Cl", "note": "[Compound 59]", "values": [
      {"measurement": "Plant response rating (0 to 100), Barnyardgrass 2", "setting": "[1]; [10]", "result": 0},
      {"measurement": "Plant response rating (0 to 100), Barnyardgrass 2", "setting": "[1]; [11]", "result": 90},
      {"measurement": "Plant response rating (0 to 100), Barnyardgrass 2", "setting": "[1]; [12]", "result": 100},
      {"measurement": "Plant response rating Barnyardgrass 2", "setting": "[1]; [13]", "result": 100},
      {"measurement": "Plant response rating Pigweed", "setting": "[2]; POSTEMERGENCE", "result": 100},
      {"measurement": "Plant response rating (0 to 100), Pigweed", "setting": "[2]; POSTEMERGENCE, Rate 2 g/ha", "result": 30},
      {"measurement": "Plant response rating Pigweed", "setting": "[2]; PREEMERGENCE", "result": 100},
      {"measurement": "Plant response rating (0 to 100), Pigweed", "setting": "[2]; PREEMERGENCE, Rate 2 g/ha", "result": 0},
      {"measurement": "Plant response rating (0 to 100), Pigweed", "setting": "[2]; Rate 8 g/ha, POSTEMERGENCE", "result": 30},
      {"measurement": "Plant response rating (0 to 100), Pigweed", "setting": "[2]; Rate 8 g/ha, PREEMERGENCE", "result": 100},
      {"measurement": "Plant response rating (0 to 100), Pigweed", "setting": "[2]; Rate 31 g/ha, POSTEMERGENCE", "result": 100},
      {"measurement": "Plant response rating (0 to 100), Pigweed", "setting": "[2]; Rate 31 g/ha, PREEMERGENCE", "result": 100},
      {"measurement": "Plant response rating, Blackgrass", "setting": "[3]; POSTEMERGENCE, Rate 50 g/ha", "result": 4},
      {"measurement": "Plant response rating, Blackgrass", "setting": "[3]; PREEMERGENCE, Rate 50 g/ha", "result": 4},
      {"measurement": "Plant response rating (0 to 10 scale), Blackgrass", "setting": "[3]; PREEMERGENCE, Rate 200 g/ha", "result": 5},
      {"measurement": "Plant response rating, Blackgrass", "setting": "[3]; Rate 200 g/ha, POSTEMERGENCE", "result": 5},
      {"measurement": "Plant response rating, Wild buckwheat", "setting": "[4]; POSTEMERGENCE", "result": 100},
      {"measurement": "Plant response rating (0 to 100), Wild buckwheat", "setting": "[4]; POSTEMERGENCE, Rate 2 g/ha", "result": 100},
      {"measurement": "Plant response rating, Wild buckwheat", "setting": "[4]; PREEMERGENCE", "result": 100},
      {"measurement": "Plant response rating (0 to 100), Wild buckwheat", "setting": "[4]; PREEMERGENCE, Rate 2 g/ha", "result": 0},
      {"measurement": "Plant response rating (0 to 100), Wild buckwheat", "setting": "[4]; Rate 8 g/ha, POSTEMERGENCE", "result": 100},
      {"measurement": "Plant response rating (0 to 100), Wild buckwheat", "setting": "[4]; Rate 8 g/ha, PREEMERGENCE", "result": 0},
      {"measurement": "Plant response rating (0 to 100), Wild buckwheat", "setting": "[4]; Rate 31 g/ha, POSTEMERGENCE", "result": 100},
      {"measurement": "Plant response rating (0 to 100), Wild buckwheat", "setting": "[4]; Rate 31 g/ha, PREEMERGENCE", "result": 50},
      {"measurement": "Plant response rating, Cotton", "setting": "[5]; POSTEMERGENCE, Rate 50 g/ha", "result": 10},
      {"measurement": "Plant response rating, Cotton", "setting": "[5]; PREEMERGENCE, Rate 50 g/ha", "result": 4},
      {"measurement": "Plant response rating (0 to 10 scale), Cotton", "setting": "[5]; PREEMERGENCE, Rate 200 g/ha", "result": 7},
      {"measurement": "Plant response rating, Cotton", "setting": "[5]; Rate 200 g/ha, POSTEMERGENCE", "result": 10},
      {"measurement": "Plant response rating, Wheat", "setting": "[6]; POSTEMERGENCE", "result": 70},
      {"measurement": "Plant response rating (0 to 100), Wheat", "setting": "[6]; POSTEMERGENCE, Rate 2 g/ha", "result": 10},
      {"measurement": "Plant response rating, Wheat", "setting": "[6]; PREEMERGENCE", "result": 10},
      {"measurement": "Plant response rating (0 to 100), Wheat", "setting": "[6]; PREEMERGENCE, Rate 2 g/ha", "result": 0},
      {"measurement": "Plant response rating (0 to 100), Wheat", "setting": "[6]; Rate 8 g/ha, POSTEMERGENCE", "result": 40},
      {"measurement": "Plant response rating (0 to 100), Wheat", "setting": "[6]; Rate 8 g/ha, PREEMERGENCE", "result": 0},
      {"measurement": "Plant response rating (0 to 100), Wheat", "setting": "[6]; Rate 31 g/ha, POSTEMERGENCE", "result": 60},
      {"measurement": "Plant response rating (0 to 100), Wheat", "setting": "[6]; Rate 31 g/ha, PREEMERGENCE", "result": 0},
      {"measurement": "Plant response rating (0 to 100), Duck salad", "setting": "[7]; [10]", "result": 0},
      {"measurement": "Plant response rating (0 to 100), Duck salad", "setting": "[7]; [11]", "result": 0},
      {"measurement": "Plant response rating (0 to 100), Duck salad", "setting": "[7]; [12]", "result": 40},
      {"measurement": "Plant response rating Duck salad", "setting": "[7]; [13]", "result": 80},
      {"measurement": "Plant response rating, Wild oat", "setting": "[8]; POSTEMERGENCE, Rate 50 g/ha", "result": 7},
      {"measurement": "Plant response rating, Wild oat", "setting": "[8]; PREEMERGENCE, Rate 50 g/ha", "result": 2},
      {"measurement": "Plant response rating (0 to 10 scale), Wild oat", "setting": "[8]; PREEMERGENCE, Rate 200 g/ha", "result": 7},
      {"measurement": "Plant response rating, Wild oat", "setting": "[8]; Rate 200 g/ha, POSTEMERGENCE", "result": 7},
      {"measurement": "Plant response rating, Rice", "setting": "[9]; POSTEMERGENCE, Rate 50 g/ha", "result": 5},
      {"measurement": "Plant response rating, Rice", "setting": "[9]; PREEMERGENCE, Rate 50 g/ha", "result": 0},
      {"measurement": "Plant response rating (0 to 10 scale), Rice", "setting": "[9]; PREEMERGENCE, Rate 200 g/ha", "result": 1},
      {"measurement": "Plant response rating, Rice", "setting": "[9]; Rate 200 g/ha, POSTEMERGENCE", "result": 5}
    ]}
  ]
}
